Earlier results, collected in patent US10350179B2, “Combination comprising palmitoylethanolamide (PEA) and lycopene for use in the treatment of inflammatory diseases” (Raffaele MIGLIACCIO, priority 2015, dated 2019).

Conditions: dietary intake, background statement

For `CC(C)=CCC/C(C)=C/C=C/C(C)=C/C=C/C(C)=C/C=C/C=C(C)/C=C/C=C(C)/C=C/C=C(\C)CCC=C(C)C` [Lycopene], the “Concentration in human plasma” value is given as 220 to 1060 nM.
